Columns and labels:
Assay in all cases: selective drug sensitivity score (sDSS, relative to normal bone marrow) (sDSS (score)); higher = more potent and effective on the cell line relative to normal bone marrow cells
Conditions in all cases: 72 h
LC4-1 = test system: LC4-1
KARPAS-45 = test system: KARPAS-45
RCH-ACV = test system: RCH-ACV
MN-60 = test system: MN-60
MHH-CALL-2 = test system: MHH-CALL-2
MHH-CALL-3 = test system: MHH-CALL-3
COG-LL-394h = test system: COG-LL-394h
P30-OHKUBO = test system: P30-OHKUBO
COG-LL-355h = test system: COG-LL-355h
SEM cells = test system: SEM cells
380 = test system: 380
697 = test system: 697
KOPN-8 = test system: KOPN-8
CCRF-HSB2 = test system: CCRF-HSB2
RPMI-8402 = test system: RPMI-8402
HPB-ALL = test system: HPB-ALL
JURKAT = test system: JURKAT
KASUMI-10 = test system: KASUMI-10
NALL-1 = test system: NALL-1
MOLT-16 = test system: MOLT-16
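Further: ALL cell lines in 384-well plates, five doses spanning 10,000-fold, each plate scaled between vehicle and 100 µmol/L benzalkonium chloride controls, sDSS an adapted area-under-curve metric.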

| SMILES | selective drug sensitivity score (LC4-1) | selective drug sensitivity score (KARPAS-45) | selective drug sensitivity score (RCH-ACV) | selective drug sensitivity score (MN-60) | selective drug sensitivity score (MHH-CALL-2) | selective drug sensitivity score (MHH-CALL-3) | selective drug sensitivity score (COG-LL-394h) | selective drug sensitivity score (P30-OHKUBO) | selective drug sensitivity score (COG-LL-355h) | selective drug sensitivity score (SEM cells) | selective drug sensitivity score 380 | selective drug sensitivity score 697 | selective drug sensitivity score (KOPN-8) | selective drug sensitivity score (CCRF-HSB2) | selective drug sensitivity score (RPMI-8402) | selective drug sensitivity score (HPB-ALL) | selective drug sensitivity score (JURKAT) | selective drug sensitivity score (KASUMI-10) | selective drug sensitivity score (NALL-1) | selective drug sensitivity score (MOLT-16) |
| --- | --- | --- | --- | --- | --- | --- | --- | --- | --- | --- | --- | --- | --- | --- | --- | --- | --- | --- | --- | --- |
| CN1CC[C@H](c2c(O)cc(O)c3c(=O)cc(-c4ccccc4Cl)oc23)[C@H](O)C1 [Alvocidib] (top concentration 10000 nM) | -3.3 | 2 | 2.7 | -3.9 | -3.5 | -3.6 | -2.5 | 1.1 | -0.1 | -3.5 | -4.3 | 1.3 | -1.2 | 2.2 | -1 | -3.1 | -2.6 | -2.9 | -7.1 | 0.7 |
| CC(C)c1c(C(=O)Nc2ccccc2)c(-c2ccccc2)c(-c2ccc(F)cc2)n1CC[C@@H](O)C[C@@H](O)CC(=O)O [Atorvastatin] (top concentration 10000 nM) | 4.9 | 3.5 | -1 | -2.5 | 0 | -3.7 | -1.2 | -2.2 | 4.2 | 0.4 | -3 | -2.4 | 6.6 | -2.1 | 2.9 | -1.5 | -3.7 | -1.8 | 0.1 | 2 |
| Nc1ncn([C@@H]2O[C@H](CO)[C@@H](O)[C@H]2O)c(=O)n1 [Azacitidine] (top concentration 10000 nM) | 6.04 | -1.16 | 5.24 | 0.84 | 5.84 | 4.24 | -2.26 | 6.54 | 5.14 | 8.74 | 5.44 | 10.9 | 8.74 | -0.56 | 3.34 | 7.94 | 4.04 | 3.64 | 4.14 | 7.14 |
| Cc1cc(-c2nc(-c3ccc(OC(F)(F)F)cc3)no2)nn1Cc1ccnc(N2CCN(C3CC3)CC2)c1 [BAY_87-2243] (top concentration 1000 nM) | 3.84 | 16.5 | 14.4 | 25.6 | 8.64 | -6.36 | 23.5 | 6.44 | 10.8 | 6.84 | -8.66 | 18.7 | 6.34 | 14.9 | 28 | 8.54 | 30.1 | -6.66 | 0.04 | 22.9 |
| O=C(Nc1cccc(Nc2ncc(Br)c(NCCc3cnc[nH]3)n2)c1)N1CCCC1 [BX-912] (top concentration 10000 nM) | 12.3 | 3.56 | 13.3 | -1.44 | 2.86 | 3.06 | -2.24 | 10.9 | 1.36 | 13.4 | 8.26 | 10.4 | 12.4 | 9.66 | 3.36 | -0.34 | -1.34 | 12.8 | 7.36 | 9.06 |
| C=C(c1ccc(C(=O)O)cc1)c1cc2c(cc1C)C(C)(C)CCC2(C)C [Bexarotene] (top concentration 10000 nM) | 0.2 | -1.8 | -5.1 | -5.3 | 3.5 | 10.2 | -5.3 | -5.3 | -5.1 | 2.9 | 24 | -2.7 | 8 | -0.9 | -4 | -5.1 | -2.7 | -1.9 | -4.5 | 1.7 |
| Cn1cnc2c(F)c(Nc3ccc(Br)cc3F)c(C(=O)NOCCO)cc21 [Binimetinib] (top concentration 1000 nM) | 2.18 | -1.82 | -2.22 | -2.22 | 5.28 | 7.18 | 0.48 | -2.22 | 5.58 | -2.22 | 1.58 | -1.62 | 10.3 | -0.32 | -2.22 | -2.22 | -2.02 | 0.28 | -2.22 | -0.42 |
| COc1cc(N2CCC(N3CCN(C)CC3)CC2)ccc1Nc1ncc(Cl)c(Nc2ccccc2P(C)(C)=O)n1 [Brigatinib] (top concentration 1000 nM) | -0.94 | -1.74 | 8.86 | -2.54 | 7.66 | -3.34 | -1.84 | -3.34 | 2.86 | 4.06 | -3.34 | -1.84 | -3.34 | -1.14 | -2.44 | 3.06 | -3.34 | 4.76 | -3.34 | -3.34 |
| CC1=NN(c2ccc(C(=O)O)cc2)C(=O)C1=Cc1ccc(-c2cc(C)c(C)cc2[N+](=O)[O-])o1 [C646] (top concentration 25000 nM) | 1.84 | 1.74 | 1.94 | -2.06 | -2.06 | 4.64 | -0.66 | 3.94 | 4.44 | -0.26 | -0.86 | 2.34 | 2.44 | 3.14 | -2.06 | 5.74 | 0.94 | -0.36 | -2.06 | 4.84 |
| CCN1C(=O)CNc2ncc(-c3ccc(-c4nc[nH]n4)nc3C)nc21 [CC-115] (top concentration 10000 nM) | 4.54 | 1.34 | 17.5 | 1.54 | 8.34 | 1.34 | -2.06 | 2.94 | 1.44 | 0.04 | 10.6 | 4.14 | 17.5 | 2.64 | 0.94 | 1.84 | 1.24 | 0.14 | 4.24 | 4.74 |
| Cc1noc2c1-c1ccccc1C(c1ccc(Cl)cc1)=N[C@H]2CC(N)=O [CPI-0610] (top concentration 10000 nM) | 3.6 | 6.7 | 10.9 | 6.9 | -3 | 17.9 | 0.5 | 6.1 | 10.3 | 7.5 | 1.7 | 7.1 | 11.1 | 0.8 | 4.4 | 1 | -0.2 | 4.6 | -4.4 | 6.7 |
| Cc1cc(Nc2ncc(Cl)c(Nc3ccccc3S(=O)(=O)C(C)C)n2)c(OC(C)C)cc1C1CCNCC1 [Ceritinib] (top concentration 2500 nM) | 3.06 | -2.54 | -2.04 | -2.64 | -0.04 | -3.44 | 5.16 | -2.44 | 2.86 | -3.44 | 0.36 | -2.24 | -3.44 | -3.44 | -1.84 | 1.86 | -3.44 | 0.36 | -2.14 | -3.44 |
| Nc1nc(Cl)nc2c1ncn2[C@@H]1O[C@H](CO)[C@@H](O)[C@@H]1F [Clofarabine] (top concentration 10000 nM) | 9.2 | -22.6 | 6.8 | -7.1 | 9.2 | 10.9 | -27.4 | 10.3 | 3 | 7 | 13.4 | 9.6 | 6.7 | 6.8 | 3.5 | -8.5 | 1.9 | 1 | 1.8 | 4.4 |
| CC1(COc2ccc3c(c2)ncn3-c2ccc3cccc(N4CCC(N)CC4)c3n2)COC1 [Crenolanib] (top concentration 10000 nM) | -3.92 | 1.28 | -1.12 | -3.42 | 3.28 | -5.32 | -3.62 | -2.72 | 0.48 | 13.9 | 2.08 | 3.28 | 0.68 | 4.98 | -2.72 | -3.12 | -1.12 | 12.9 | 1.58 | -0.22 |
| Cc1nc(Nc2ncc(C(=O)Nc3c(C)cccc3Cl)s2)cc(N2CCN(CCO)CC2)n1 [Dasatinib] (top concentration 1000 nM) | -2.8 | 1.7 | 21.5 | -1.7 | -2.8 | -2.8 | 0.3 | 6.1 | -2.8 | -2.4 | -2.8 | 3.1 | 0.4 | 37.8 | -0.8 | -2.8 | -2.8 | -2.8 | -2.8 | -2.8 |
| CCc1cnn2c(NCc3ccc[n+]([O-])c3)cc(N3CCCC[C@H]3CCO)nc12 [Dinaciclib] (top concentration 1000 nM) | -3.64 | -0.34 | -0.64 | -7.74 | -3.74 | 1.76 | -1.74 | 0.26 | -4.14 | -4.34 | -5.34 | -2.64 | -6.34 | -2.74 | -2.64 | -4.34 | -5.64 | -2.24 | -6.24 | -2.24 |
| COc1cccc2c1C(=O)c1c(O)c3c(c(O)c1C2=O)C[C@@](O)(C(=O)CO)C[C@@H]3O[C@H]1C[C@H](N)[C@H](O)[C@H](C)O1 [Doxorubicin] (top concentration 1000 nM) | 5.48 | 0.78 | 10.6 | -2.12 | 10.4 | 14.8 | 7.18 | 5.18 | 3.98 | 4.08 | 11.9 | 9.88 | 13.3 | 14.4 | 5.58 | -0.42 | 2.78 | 7.48 | -1.92 | 16.1 |
| C=C1C[C@@H]2[C@H](CC[C@]3(C)C(=O)CC[C@@H]23)[C@@]2(C)C=CC(=O)C=C12 [Exemestane] (top concentration 10000 nM) | 3.6 | -1.2 | 0.4 | -1.9 | -0.9 | 0.1 | -0.4 | -0.4 | 1 | -1.9 | 7.7 | -0.9 | 5.8 | -1 | -1.9 | 5.5 | -1.4 | -1.9 | -1.9 | -1.7 |

From the supplement of paper PMC8967900
